Experiments:
RD cells = experiment: Cytotoxicity assay (CellTiter-Glo 2.0) on RD cells; assay type: cell-based, Human; conditions: for IC50: Homo sapiens; on Cytotoxicity: test concentration or dose not given here
How it was run: (§1)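 Luminescent quantification of ATP from metabolically active cells, 10 min after CellTiter-Glo 2.0 addition at room temperature, served as the viability measure. Compound incubation length and seeding density depended on the cell line. Values are relative IC50.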

EoL-1 cells = experiment: Cytotoxicity assay (CellTiter-Glo 2.0) on EoL-1 cells; assay type: cell-based, Human; conditions: incubation 1 day; for IC50: Homo sapiens, EOL1, 24 h; on Cytotoxicity: test concentration or dose not given here
How it was run: as §1

4T1 cells = experiment: Cytotoxicity assay (CellTiter-Glo 2.0) on 4T1 cells; assay type: cell-based, Mouse; conditions: incubation 2 days; for IC50: Mus musculus, 48 h; on Cytotoxicity: test concentration or dose not given here
How it was run: as §1

MDA-MB-231 cells = experiment: Cytotoxicity assay (CellTiter-Glo 2.0) on MDA-MB-231 cells; assay type: cell-based, Human; conditions: incubation 3 days; for IC50: Homo sapiens, 72 h; on Cytotoxicity: test concentration or dose not given here
How it was run: as §1

HUVECs = experiment: Tube formation assay (anti-angiogenic activity); assay type: cell-based, human; conditions: for IC50: Homo sapiens, HUVEC; on Angiogenesis inhibition: test concentration or dose not given here
How it was run: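 HUVECs plated at 5000 cells/well on reduced growth factor basement membrane matrix, then exposed to compounds for 16 to 18 hours at 37°C. Cells stained with calcein-AM; tube networks imaged by confocal fluorescence microscopy and quantified.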

[1] = 2 day-treatment, commercial kinase inhibitors
[2] = 4 day-treatment, commercial kinase inhibitors
[3] = 48 h, 2 day-treatment, commercial kinase inhibitors
[4] = 96 h, 4 day-treatment, commercial kinase inhibitors

Compound	Cytotoxicity (RD cells; 2 day-treatment)	Cytotoxicity (RD cells; 4 day-treatment)	IC50 (RD cells; 48 h, 2 day-treatment) [nM]	IC50 (RD cells; 96 h, 4 day-treatment) [nM]	IC50 (EoL-1 cells) [nM]	Cytotoxicity (EoL-1 cells)	IC50 (4T1 cells) [nM]	Cytotoxicity (4T1 cells)	IC50 (MDA-MB-231 cells) [nM]	Cytotoxicity (MDA-MB-231 cells)	IC50 (HUVECs; incubation 16 to 18 hours) [nM]	Angiogenesis inhibition (HUVECs; incubation 16 to 18 hours)	Cytotoxicity (RD cells; [1])	Cytotoxicity (RD cells; [2])	IC50 (RD cells; [3]) [nM]	IC50 (RD cells; [4]) [nM]	IC50 (EoL-1 cells; commercial kinase inhibitors) [nM]	Cytotoxicity (EoL-1 cells; commercial kinase inhibitors)	IC50 (4T1 cells; commercial kinase inhibitors) [nM]	Cytotoxicity (4T1 cells; commercial kinase inhibitors)	further results
CSc1cc(Oc2ccnc3c2OCC(=O)N3)ccc1NC(=O)Nc1cc(C(C)(C)C)nn1-c1ccc(CCN2CCOCC2)cc1 [Compound 052, 1-[5-tert-butyl-2-[4-[2-(morpholino)ethyl]phenyl]pyrazol-3-yl]-3-[2-methylsulfanyl-4-[(3-oxo-4H-pyrido[3,2-b][1,4]oxazin-8-yl)oxy]phenyl]urea]	++ (50% ≤ cytotoxicity < 85%)	++ (50% ≤ cytotoxicity < 85%)	1000 to 5000	1000 to 5000	1 to 10	+++ (cytotoxicity ≥ 85%)	< 1000	+++ (cytotoxicity ≥ 85%)	1000 to 5000	+++ (cytotoxicity ≥ 85%)	< 100	+++ (angiogenesis inhibition ≥ 80%)									
CSc1cc(Oc2ccnc3c2OCC(=O)N3)ccc1NC(=O)Nc1cc(C(C)(C)C)nn1-c1ccc(CN2CCN(C)CC2)cc1 [Compound 054, 1-[5-tert-butyl-2-[4-[(4-methylpiperazin-1-yl)methyl]phenyl]pyrazol-3-yl]-3-[2-methylsulfanyl-4-[(3-oxo-4H-pyrido[3,2-b][1,4]oxazin-8-yl)oxy]phenyl]urea]	+++ (cytotoxicity ≥ 85%)	+++ (cytotoxicity ≥ 85%)	1000 to 5000	1000 to 5000	1 to 10	+++ (cytotoxicity ≥ 85%)	1000 to 5000	+++ (cytotoxicity ≥ 85%)	1000 to 5000	+++ (cytotoxicity ≥ 85%)	< 100	+++ (angiogenesis inhibition ≥ 80%)									
CNC(=O)c1cc(Oc2ccc(NC(=O)Nc3ccc(Cl)c(C(F)(F)F)c3)c(F)c2)ccn1 [Regorafenib, reference compound]													+ (20 % ≤ cytotoxicity < 50 %)	+ (20 % ≤ cytotoxicity < 50 %)	5000 to 10000	1000 to 5000	1 to 10	+++ (cytotoxicity ≥ 85%)	5000 to 10000	++ (50 % ≤ cytotoxicity < 85 %)	IC50 (MDA-MB-231 cells; commercial kinase inhibitors): 1000 to 5000 nM; Cytotoxicity (MDA-MB-231 cells; commercial kinase inhibitors): ++ (50 % ≤ cytotoxicity < 85 %); IC50 (HUVECs; commercial kinase inhibitors): < 100 nM; Angiogenesis inhibition (HUVECs; commercial kinase inhibitors): ++ (80% > angiogenesis inhibition ≥ 50%)
CNC(=O)c1cc(Oc2ccc(NC(=O)Nc3ccc(Cl)c(C(F)(F)F)c3)cc2)ccn1 [Sorafenib, reference compound]													++ (50 % ≤ cytotoxicity < 85 %)	++ (50 % ≤ cytotoxicity < 85 %)	≥ 10000	5000 to 10000	< 1	+++ (cytotoxicity ≥ 85%)	5000 to 10000	+ (20 % ≤ cytotoxicity < 50 %)	IC50 (MDA-MB-231 cells; commercial kinase inhibitors): 5000 to 10000 nM; Cytotoxicity (MDA-MB-231 cells; commercial kinase inhibitors): +++ (cytotoxicity ≥ 85 %); IC50 (HUVECs; commercial kinase inhibitors): < 100 nM; Angiogenesis inhibition (HUVECs; commercial kinase inhibitors): + (50% > angiogenesis inhibition ≥ 20%)

From patent EP4289427A1, “DIHYDRO[1,8]NAPHTHYRIDIN-7-ONE AND PYRIDO[3,2-B][1,4]OXAZIN-3-ONE FOR USE IN TREATING CANCER, AND METASTASES IN PARTICULAR” (Anagenesis Biotechnologies, priority 2022, dated 2023)
